A short description of data set [1]: Inhibition of N-terminal (His)6/thioredoxin-tagged recombinant human BMAL1/CLOCK heterodimer expressed in Escherichia coli interaction with 5'-FAM-labeled Per2 E-box DNA (unknown origin) assessed as reduction in fluorescence intensity at 500 uM incubated for 40 mins by FP assay.
Data set [2] is described as follows: Thiol reactivity of compound assessed as second order rate constant at 200 uM in presence of TCEP by Ellman's method. The format is ADME.
The nature of data set [3]: Inhibition of N-terminal (His)6/thioredoxin-tagged recombinant human BMAL1/CLOCK heterodimer expressed in Escherichia coli interaction with 5'-FAM-labeled Per2 E-box DNA (unknown origin) assessed as reduction in fluorescence intensity incubated for 40 mins by FP assay.
The nature of data set [4]: Inhibition of N-terminal (His)6/thioredoxin-tagged recombinant human BMAL1/CLOCK heterodimer expressed in Escherichia coli interaction with FAM-labeled E-box DNA (unknown origin) assessed as reduction in fluorescence intensity at 50 uM pretreated with iodoacetamide followed by compound treatment.
Data set [5] can be described thus: Inhibition of N-terminal (His)6/thioredoxin-tagged recombinant human BMAL1/CLOCK heterodimer expressed in Escherichia coli interaction with FAM-labeled E-box DNA (unknown origin) assessed as reduction in fluorescence intensity upto 1000 uM.
Data set [6] in a line: Inhibition of N-terminal (His)6/thioredoxin-tagged recombinant human BMAL1/CLOCK heterodimer expressed in Escherichia coli interaction with 5'-FAM-labeled Per2 E-box DNA (unknown origin) assessed as reduction in fluorescence intensity at 500 uM incubated for 40 mins by FP assay relative to control.

Activity calls are given as the source filed them. No cut-off for these calls is given here.

A word on the inhibition: it is the percentage by which the read-out fell short of the control. With `C=CC(=O)NC1CCCCC1`, in data set [1], the inhibition entry is “inactive”.
For orientation: IC50 means the point on the concentration scale where inhibition reaches its midpoint. For `C=CC(=O)Nc1cc(C(F)(F)F)cc(C(F)(F)F)c1`, the K in data set [2] was 0.38 10^-5/M/s. Besides, the IC50 in data set [3] is 500 µM.
Turning to `O=C1C=CC(=O)c2nccnc21`, the inhibition result in data set [4] was “inactive”.
Turning to `O=C(CCl)NCc1ccccc1Cl`, the inhibition result in data set [1] was “inactive”.
With `O=C(CCl)Nc1ccc(C(F)(F)F)cc1`, the K in data set [2] was 4.47 10^-5/M/s. Further, in data set [5], the inhibition entry is “inactive”.
Take `O=C(CCl)Nc1cc(C(F)(F)F)cc(C(F)(F)F)c1`: the inhibition entry in data set [4] was “inactive”. The K in data set [2] was 4.61 10^-5/M/s. Further, in data set [6], the inhibition was 60%. Besides, the inhibition entry in data set [5] is “Active”. Besides, the concentration for half-maximal inhibition (IC50) in data set [3] turned out to be 150 µM.
As for `CC(C)NC(=O)CCl`, the inhibition entry in data set [1] is “inactive”.
Still for that read-out and setting: the entry for `O=C(CCl)Nc1cccc2ccccc12` is “inactive”.
On to `O=C(CCl)Nc1ccccc1C(F)(F)F`, for which the K in data set [2] is listed as 0.63 10^-5/M/s.
As to `C=CC(=O)NCc1ccccc1Cl`, the inhibition entry in data set [1] is “inactive”.
Still for that read-out and setting: as for `C=CC(=O)Nc1cccc2ccccc12`, the entry is “inactive”.
As to `NC(=O)CI` [IODOACETAMIDE], the K in data set [2] is 15.9 10^-5/M/s. In addition, in data set [5], the inhibition entry was “inactive”.
In the case of `O=C(CCl)NC1CCCCC1`, the inhibition entry in data set [1] was “inactive”.
The same measure, in the same setting: as for `C=CC(=O)NCc1ccc(Cl)cc1`, the entry is “inactive”.
As for `O=C(CCl)Nc1cccc(C(F)(F)F)c1`, the K in data set [2] is reported as 3.18 10^-5/M/s.
Turning to `O=C(CCl)Nc1ccccc1`, in data set [1], the inhibition result was “inactive”.
Still for that read-out and setting: as for `O=C(CCl)NCc1ccc(Cl)cc1`, the entry is “inactive”; as for `C=CC(=O)Nc1ccccc1`, “inactive”.
The same measure, in the same setting: the entry for `C=CC(=O)NC(C)C` is “inactive”.

The values are drawn from ChEMBL document CHEMBL5356969, “Functional evaluation of an electrophilic focused library to identify a covalent inhibitor against intrinsically disordered circadian clock transcription factors” (Bioorg Med Chem Lett, 2024).
